PubChem BioAssay AID2060495 (Molecular Pharmacology Branch, DTP, NCI, 2025)
Values belong to the compound of their own block, whether it stands above or below them.

System: 521955-158-R2-J5-PDC complex spheroid viability
Test: Anticancer human tumor 521955-158-R2-J5-PDC patient-derived pancreatic carcinoma cell line growth inhibition [GQUAD]
Conditions: for IC50: curve of first compound; for viability, T/C: stronger effect = lower value
Method in brief: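 Multi-cell-type spheroids of tumor cells with HUVEC and mesenchymal stem cells, treated with drug combinations. Concentrations descend in half-log steps from near clinical Cmax, or from 10 microM where Cmax is unknown; viability read-out.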

[1] = second compound 0.0316 µM, first compound 0.0316 µM
[2] = second compound 0.0316 µM, first compound 0.1 µM
[3] = second compound 0.0316 µM, first compound 0.316 µM
[4] = second compound 0.0316 µM, first compound 1 µM
[5] = second compound 0.0316 µM, first compound 3.16 µM
[6] = second compound 0.0316 µM, first compound 10 µM
[7] = second compound 0.1 µM, first compound 0.0316 µM
[8] = second compound 0.1 µM, first compound 0.1 µM
[9] = second compound 0.1 µM, first compound 0.316 µM
[10] = second compound 0.1 µM, first compound 1 µM
[11] = second compound 0.1 µM, first compound 3.16 µM
[12] = second compound 0.1 µM, first compound 10 µM
[13] = second compound 0.316 µM, first compound 0.0316 µM
[14] = second compound 0.316 µM, first compound 0.1 µM
[15] = second compound 0.316 µM, first compound 0.316 µM
[16] = second compound 0.316 µM, first compound 1 µM
[17] = second compound 0.316 µM, first compound 3.16 µM
[18] = second compound 0.316 µM, first compound 10 µM
[19] = second compound 1 µM, first compound 0.0316 µM
[20] = second compound 1 µM, first compound 0.1 µM
[21] = second compound 1 µM, first compound 0.316 µM
[22] = second compound 1 µM, first compound 1 µM
[23] = second compound 1 µM, first compound 3.16 µM
[24] = second compound 1 µM, first compound 10 µM
[25] = second compound 3.16 µM, first compound 0.0316 µM
[26] = second compound 3.16 µM, first compound 0.1 µM
[27] = second compound 3.16 µM, first compound 0.316 µM
[28] = second compound 3.16 µM, first compound 1 µM
[29] = second compound 3.16 µM, first compound 3.16 µM
[30] = second compound 3.16 µM, first compound 10 µM
[31] = second compound 10 µM, first compound 0.0316 µM
[32] = second compound 10 µM, first compound 0.1 µM
[33] = second compound 10 µM, first compound 0.316 µM
[34] = second compound 10 µM, first compound 1 µM
[35] = second compound 10 µM, first compound 3.16 µM
[36] = second compound 10 µM, first compound 10 µM
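Note: spheroids exposed to agents for one week before reading.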
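Throughout, for viability, T/C: 100% = DMSO vehicle control viability.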

SMILES: O=C(c1cc(Cc2n[nH]c(=O)c3ccccc23)ccc1F)N1CCN(C(=O)C2CC2)CC1 + Cc1[nH]c2ccc(F)cc2c1-c1nc2c3cccnc3c3ncccc3c2[nH]1
IC50 (second compound 0.0316 µM): > 10000 nM
IC50 (second compound 0.1 µM): > 10000 nM
IC50 (second compound 0.316 µM): > 10000 nM
IC50 (second compound 1 µM): > 10000 nM
IC50 (second compound 3.16 µM): > 10000 nM
IC50 (second compound 10 µM): > 10000 nM
viability, T/C [1]: 84.3%
viability, T/C [2]: 88.5%
viability, T/C [3]: 89.8%
viability, T/C [4]: 80.4%
viability, T/C [5]: 93%
viability, T/C [6]: 74.5%
viability, T/C [7]: 83.4%
viability, T/C [8]: 80%
viability, T/C [9]: 82%
viability, T/C [10]: 83.2%
viability, T/C [11]: 87.9%
viability, T/C [12]: 96.3%
viability, T/C [13]: 80.9%
viability, T/C [14]: 76.9%
viability, T/C [15]: 102%
viability, T/C [16]: 102%
viability, T/C [17]: 88.3%
viability, T/C [18]: 91%
viability, T/C [19]: 92.4%
viability, T/C [20]: 93%
viability, T/C [21]: 99.4%
viability, T/C [22]: 98.8%
viability, T/C [23]: 104%
viability, T/C [24]: 92.7%
viability, T/C [25]: 91.8%
viability, T/C [26]: 104%
viability, T/C [27]: 78.7%
viability, T/C [28]: 98.3%
viability, T/C [29]: 98.7%
viability, T/C [30]: 84.5%
viability, T/C [31]: 86.8%
viability, T/C [32]: 92.7%
viability, T/C [33]: 88.2%
viability, T/C [34]: 102%
viability, T/C [35]: 92.5%
viability, T/C [36]: 82.6%

IC50 (second compound 0.0316 µM): < 31.6 nM
IC50 (second compound 0.1 µM): < 31.6 nM
IC50 (second compound 0.316 µM): < 31.6 nM
IC50 (second compound 1 µM): < 31.6 nM
IC50 (second compound 3.16 µM): < 31.6 nM
IC50 (second compound 10 µM): < 31.6 nM
SMILES: CC1COCCN1c1cc(-c2ccnn2C)c2ccnc(-c3ccn[nH]3)c2n1 (stereo not drawn) + Cc1cnc(CNC(=O)c2c(=O)c3ccc(N4CCCN(C)CC4)nc3n3c2sc2ccccc23)cn1
viability, T/C [1]: 33.3%
viability, T/C [2]: 10.8%
viability, T/C [3]: 10.1%
viability, T/C [4]: 11.2%
viability, T/C [5]: 14.3%
viability, T/C [6]: 20.8%
viability, T/C [7]: 28.9%
viability, T/C [8]: 12.6%
viability, T/C [9]: 10.6%
viability, T/C [10]: 10.2%
viability, T/C [11]: 12.9%
viability, T/C [12]: 15.9%
viability, T/C [13]: 29.5%
viability, T/C [14]: 16.6%
viability, T/C [15]: 13.1%
viability, T/C [16]: 11.2%
viability, T/C [17]: 12%
viability, T/C [18]: 14.7%
viability, T/C [19]: 19.1%
viability, T/C [20]: 14.2%
viability, T/C [21]: 10.4%
viability, T/C [22]: 9.64%
viability, T/C [23]: 12.4%
viability, T/C [24]: 10.6%
viability, T/C [25]: 18.9%
viability, T/C [26]: 12.2%
viability, T/C [27]: 11.1%
viability, T/C [28]: 8.14%
viability, T/C [29]: 10.1%
viability, T/C [30]: 8.5%
viability, T/C [31]: 15.4%
viability, T/C [32]: 12.7%
viability, T/C [33]: 10.5%
viability, T/C [34]: 10.9%
viability, T/C [35]: 7.61%
viability, T/C [36]: 8.53%

SMILES: Cn1ncnc1[C@H]1c2n[nH]c(=O)c3cc(F)cc(c23)N[C@@H]1c1ccc(F)cc1 + CN(C)c1ccc(Nc2c3ccc(NC(=O)CCN4CCCC4)cc3nc3cc(NC(=O)CCN4CCCC4)ccc23)cc1
IC50 (second compound 0.0316 µM): > 316 nM
IC50 (second compound 0.1 µM): > 316 nM
IC50 (second compound 0.316 µM): > 316 nM
IC50 (second compound 1 µM): > 316 nM
IC50 (second compound 3.16 µM): > 316 nM
IC50 (second compound 10 µM): > 316 nM
viability, T/C (second compound 0.0316 µM, first compound 0.000999 µM): 99.1%
viability, T/C (second compound 0.0316 µM, first compound 0.00316 µM): 89%
viability, T/C (second compound 0.0316 µM, first compound 0.00999 µM): 104%
viability, T/C [1]: 91.1%
viability, T/C (second compound 0.0316 µM, first compound 0.0999 µM): 90.7%
viability, T/C [3]: 80%
viability, T/C (second compound 0.1 µM, first compound 0.000999 µM): 92.8%
viability, T/C (second compound 0.1 µM, first compound 0.00316 µM): 98.7%
viability, T/C (second compound 0.1 µM, first compound 0.00999 µM): 90%
viability, T/C [7]: 93.9%
viability, T/C (second compound 0.1 µM, first compound 0.0999 µM): 92.2%
viability, T/C [9]: 81.4%
viability, T/C (second compound 0.316 µM, first compound 0.000999 µM): 97.5%
viability, T/C (second compound 0.316 µM, first compound 0.00316 µM): 95.7%
viability, T/C (second compound 0.316 µM, first compound 0.00999 µM): 93.3%
viability, T/C [13]: 90.6%
viability, T/C (second compound 0.316 µM, first compound 0.0999 µM): 88.2%
viability, T/C [15]: 83.7%
viability, T/C (second compound 1 µM, first compound 0.000999 µM): 99.6%
viability, T/C (second compound 1 µM, first compound 0.00316 µM): 90.2%
viability, T/C (second compound 1 µM, first compound 0.00999 µM): 92.1%
viability, T/C [19]: 97%
viability, T/C (second compound 1 µM, first compound 0.0999 µM): 89.2%
viability, T/C [21]: 73.7%
viability, T/C (second compound 3.16 µM, first compound 0.000999 µM): 87.4%
viability, T/C (second compound 3.16 µM, first compound 0.00316 µM): 77.9%
viability, T/C (second compound 3.16 µM, first compound 0.00999 µM): 76.4%
viability, T/C [25]: 67.5%
viability, T/C (second compound 3.16 µM, first compound 0.0999 µM): 74.7%
viability, T/C [27]: 66.3%
viability, T/C (second compound 10 µM, first compound 0.000999 µM): 68.1%
viability, T/C (second compound 10 µM, first compound 0.00316 µM): 70.6%
viability, T/C (second compound 10 µM, first compound 0.00999 µM): 70.7%
viability, T/C [31]: 60.5%
viability, T/C (second compound 10 µM, first compound 0.0999 µM): 61.4%
viability, T/C [33]: 59.4%

IC50 (second compound 0.0316 µM): 614 nM
IC50 (second compound 0.1 µM): 543 nM
IC50 (second compound 0.316 µM): < 31.6 nM
IC50 (second compound 1 µM): < 31.6 nM
IC50 (second compound 3.16 µM): < 31.6 nM
IC50 (second compound 10 µM): < 31.6 nM
SMILES: CC1COCCN1c1cc(C2(S(C)(=N)=O)CC2)nc(-c2ccnc3[nH]ccc23)n1 (stereo not drawn) + Cc1cnc(CNC(=O)c2c(=O)c3ccc(N4CCCN(C)CC4)nc3n3c2sc2ccccc23)cn1
viability, T/C [1]: 80.3%
viability, T/C [2]: 86.1%
viability, T/C [3]: 82.4%
viability, T/C [4]: 26.1%
viability, T/C [5]: 9.1%
viability, T/C [6]: 10.6%
viability, T/C [7]: 59.4%
viability, T/C [8]: 60.2%
viability, T/C [9]: 76.2%
viability, T/C [10]: 32.7%
viability, T/C [11]: 12.3%
viability, T/C [12]: 10.4%
viability, T/C [13]: 42.2%
viability, T/C [14]: 46.2%
viability, T/C [15]: 53.2%
viability, T/C [16]: 32.8%
viability, T/C [17]: 13.7%
viability, T/C [18]: 11.3%
viability, T/C [19]: 31%
viability, T/C [20]: 24.5%
viability, T/C [21]: 23.4%
viability, T/C [22]: 23.7%
viability, T/C [23]: 15.4%
viability, T/C [24]: 11.1%
viability, T/C [25]: 21.3%
viability, T/C [26]: 23.6%
viability, T/C [27]: 21.5%
viability, T/C [28]: 19.3%
viability, T/C [29]: 13.6%
viability, T/C [30]: 9.15%
viability, T/C [31]: 16.2%
viability, T/C [32]: 19.1%
viability, T/C [33]: 20.9%
viability, T/C [34]: 22.8%
viability, T/C [35]: 14.3%
viability, T/C [36]: 7.66%
